Numbers after ± are expanded uncertainties.
experiment: refractive index (Na D-line) (dimensionless); settings: 293.1 K; 101.33 kPa; Liquid; Standard Abbe refractometry

Row | refractive index | Structure (SMILES)
1 | 1.489 ± 0.0007 | CCC(C)c1ccccc1 (stereo not drawn) [(1-methylpropyl)benzene]
2 | 1.4281 ± 0.0007 | CN(C)C=O [dimethylformamide]
3 | 1.422 ± 0.0007 | CCCCCCCCCCCC [dodecane]

Source: the NIST ThermoML archive (doi:10.1016/j.fluid.2005.12.006)
